Like-named read-outs stand apart in the source and are kept apart here.
Columns and labels:
[1] = target: T1, putrescine oxidase (Kocuria rosea, UniProt P40974); settings: cited from earlier work
T1 sequence (P40974 1-478): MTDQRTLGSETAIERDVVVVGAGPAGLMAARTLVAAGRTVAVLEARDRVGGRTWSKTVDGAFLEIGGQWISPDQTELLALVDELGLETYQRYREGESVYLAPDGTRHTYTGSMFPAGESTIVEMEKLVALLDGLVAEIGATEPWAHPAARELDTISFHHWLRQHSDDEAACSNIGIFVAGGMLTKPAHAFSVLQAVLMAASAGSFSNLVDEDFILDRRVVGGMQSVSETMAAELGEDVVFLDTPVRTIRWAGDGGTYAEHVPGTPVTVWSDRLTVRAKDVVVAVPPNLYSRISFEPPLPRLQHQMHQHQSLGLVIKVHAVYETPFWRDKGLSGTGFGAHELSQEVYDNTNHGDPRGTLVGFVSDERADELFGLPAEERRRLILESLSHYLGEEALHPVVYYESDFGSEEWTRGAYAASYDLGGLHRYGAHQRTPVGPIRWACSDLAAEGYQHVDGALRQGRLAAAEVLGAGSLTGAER

[2] = system: polyamine oxidase PC-3; experiment: Enzymatic oxidative decomposition by polyamine oxidase PC-3, colorimetric determination of hydrogen peroxide; format: biochemical; settings: for Activity of the enzyme on the substrate: N8-acetylspermidine only if the concentration of the enzyme is relatively high; for H2O2 formed: substrates marked * only with a relatively high concentration of the enzyme, -- = no activity; for hydrogen peroxide produced per mole of the substrate / time to completion of the reaction: pH 5.5, 35° C., about 0.05 unit of enzyme (about 15 units for N8-acetylspermidine)
[3] = system: polyamine oxidase PC-3 followed by acetylputrescine oxidase; experiment: Two-step reaction: polyamine oxidase PC-3, then acetylputrescine oxidase; format: biochemical
[4] = system: polyamine oxidase PC-3; settings: cited from earlier work
[5] = target: T1, putrescine oxidase; experiment: Enzymatic oxidative decomposition by putrescine oxidase, colorimetric determination of hydrogen peroxide; format: biochemical; settings: for H2O2 formed: Table 1, -- = no activity; for hydrogen peroxide produced per mole of the substrate / time to completion of the reaction: borate buffer pH 8.5, 35° C., about 0.5 unit of enzyme
[6] = system: polyamine oxidase AT-1; experiment: Enzymatic oxidative decomposition by polyamine oxidase AT-1, colorimetric determination of hydrogen peroxide; format: biochemical; settings: for putrescine formed / H2O2 formed: Table 1, substrates marked * only with a relatively high concentration of the enzyme; for H2O2 formed: -- = no activity; for hydrogen peroxide produced per mole of the substrate / time to completion of the reaction: pH 6.5, 35° C., 0.05 unit of enzyme (2 units for acetylspermine); for Activity of the enzyme on the substrate: spermine and spermidine at low enzyme concentration, acetylspermine and N1-acetylspermidine when the concentration of the enzyme is increased
[7] = system: polyamine oxidase AT-1 followed by putrescine oxidase; experiment: Two-step reaction: polyamine oxidase AT-1, then putrescine oxidase; format: biochemical; settings: for absorbance after the first step / increment of absorbance in the second step / absorbance after the second step: 505 nm; for absorbance after the first step: AT-1 0.05 unit (about 5 units for acetylspermine and N1-acetylspermidine), 0.5 ml of 400 μM substrate in 2.5 ml; for increment of absorbance in the second step: after addition of putrescine oxidase; for absorbance after the second step: putrescine oxidase 0.5 unit, pH 8-9, 5 minutes; for hydrogen peroxide produced per mole of the substrate in the first step: polyamine oxidase AT-1; for hydrogen peroxide produced in the second step: putrescine oxidase acting on the putrescine produced in the first step
[8] = system: polyamine oxidase PC-3 followed by putrescine oxidase; experiment: Two-step reaction: polyamine oxidase PC-3, then putrescine oxidase; format: biochemical; settings: for absorbance after the first step / increment of absorbance in the second step / absorbance after the second step: 505 nm; for absorbance after the first step: PC-3 about 0.05 unit, acetate buffer pH 5.0; for increment of absorbance in the second step: after addition of putrescine oxidase; for absorbance after the second step: putrescine oxidase about 0.5 unit, pH 8-8.5, 5 minutes; for hydrogen peroxide produced per mole of the substrate in the first step: polyamine oxidase PC-3; for hydrogen peroxide produced per mole of the substrate in the second step: putrescine oxidase
[9] = system: polyamine oxidase AT-1; settings: cited from earlier work

Molecule: NCCCN [1,3-diaminopropane]
- Substrate specificity [1]: inactive

Molecule: CC(=O)NCCCCNCCCN [N^8 -acetylspermidine]
- Activity of the enzyme on the substrate [2]: active
- acetylputrescine formed ([2]; Table 1, relatively high concentration of the enzyme): 1 moles per mole of the substrat
- H2O2 formed ([2]; Table 1): 1 moles per mole of the substrat
- hydrogen peroxide produced per mole of the substrate [2]: 1 mol
- time to completion of the reaction [2]: ≤ 10 min
- absorbance after the first step ([3]; 505 nm, PC-3 about 15 units, pH 5.5, 0.5 ml of 400 μM substrate in 2.5 ml): 0.500
- absorbance after the second step ([3]; 505 nm, acetylputrescine oxidase about 0.5 unit, pH about 7.5, about 10 minutes): 1.000
- increment of absorbance in the second step ([3]; 505 nm, after addition of acetylputrescine oxidase): 0.500
- hydrogen peroxide produced per mole of the substrate in the second step ([3]; acetylputrescine oxidase): 1 mol
- hydrogen peroxide produced per mole of the substrate in the first step ([3]; polyamine oxidase PC-3): 1 mol

Molecule: O=C(O)c1cc[c]([Hg][Cl])cc1 [PCMB]
- Inhibitors ([4]; spermine as the substrate): inhibition

Molecule: O=C(O)CI [monoiodoacetic acid]
- Inhibitors [4]: inhibition

Molecule: NCCCCN [putrescine]
- H2O2 formed [5]: 1 moles per mole of the substrat
- hydrogen peroxide produced per mole of the substrate [5]: 1 mol
- time to completion of the reaction [5]: ≤ 5 min
- Enzymatic activity: products per mole of the substrate [1]: each 1 mole of 4-aminobutanal, hydrogen peroxide and ammonia
- Substrate specificity [1]: active

Molecule: NCCCCNCCCN [spermidine]
- putrescine formed [6]: 1 moles per mole of the substrat
- H2O2 formed [6]: 1 moles per mole of the substrat
- hydrogen peroxide produced per mole of the substrate [6]: 1 mol
- time to completion of the reaction [6]: ≤ 5 min
- Activity of the enzyme on the substrate [6]: active
- Activity of the enzyme on the substrate [2]: active
- putrescine formed ([2]; Table 1): 1 moles per mole of the substrat
- H2O2 formed ([2]; Table 1): 1 moles per mole of the substrat
- hydrogen peroxide produced per mole of the substrate [2]: 1 mol
- time to completion of the reaction [2]: ≤ 10 min
- H2O2 formed [5]: 1 moles per mole of the substrat
- hydrogen peroxide produced per mole of the substrate [5]: 1 mol
- time to completion of the reaction [5]: ≤ 10 min
- absorbance after the first step [7]: 0.50
- increment of absorbance in the second step [7]: 0.50
- absorbance after the second step [7]: 1.00
- hydrogen peroxide produced per mole of the substrate in the first step [7]: 1 mol
- hydrogen peroxide produced in the second step [7]: 1 mol
- absorbance after the first step [8]: 0.50
- increment of absorbance in the second step [8]: 0.50
- absorbance after the second step [8]: 1.00
- hydrogen peroxide produced per mole of the substrate in the first step [8]: 1 mol
- hydrogen peroxide produced per mole of the substrate in the second step [8]: 1 mol
- Substrate specificity ([9]; oxidation with formation of hydrogen peroxide): active
- Enzymatic activity: products per mole of the substrate ([9]; polyamine oxidase AT-1): each 1 mole of putrescine, 3-aminopropanal and hydrogen peroxide
- Enzymatic activity: products per mole of the substrate ([4]; polyamine oxidase PC-3): each 1 mole of putrescine, 3-aminopropanaland hydrogen peroxide
- Substrate specificity ([4]; polyamine oxidase PC-3): active
- Enzymatic activity: products per mole of the substrate [1]: each 1 mole of 1,3-diaminopropane, 4-aminobutanal and hydrogen peroxide
- Substrate specificity [1]: active

Molecule: NCCCNCCCCNCCCN [spermine]
- absorbance at completion of the reaction ([6]; 505 nm, 0.5 ml of 400 μM substrate in 2.5 ml, pH 6.5, 35° C., 0.05 unit of enzyme): 1.00
- putrescine formed [6]: 1 moles per mole of the substrat
- H2O2 formed [6]: 2 moles per mole of the substrat
- hydrogen peroxide produced per mole of the substrate [6]: 2 mol
- time to completion of the reaction [6]: ≤ 5 min
- Activity of the enzyme on the substrate [6]: active
- Activity of the enzyme on the substrate [2]: active
- putrescine formed ([2]; Table 1): 1 moles per mole of the substrat
- H2O2 formed ([2]; Table 1): 2 moles per mole of the substrat
- hydrogen peroxide produced per mole of the substrate [2]: 2 mol
- time to completion of the reaction [2]: ≤ 5 min
- absorbance after the first step [7]: 1.00
- increment of absorbance in the second step [7]: 0.50
- absorbance after the second step [7]: 1.50
- hydrogen peroxide produced per mole of the substrate in the first step [7]: 2 mol
- hydrogen peroxide produced in the second step [7]: 1 mol
- absorbance after the first step [8]: 1.00
- increment of absorbance in the second step [8]: 0.50
- absorbance after the second step [8]: 1.50
- hydrogen peroxide produced per mole of the substrate in the first step [8]: 2 mol
- hydrogen peroxide produced per mole of the substrate in the second step [8]: 1 mol
- Enzymatic activity: products per mole of the substrate [9]: 1 mole of putrescine and each 2 moles of 3-aminopropanal and hydrogen peroxide
- Substrate specificity [9]: active
- Enzymatic activity: products per mole of the substrate [4]: 1 mole of putrescine and each 2 moles of 3-aminopropanal and hydrogen peroxide
- Substrate specificity [4]: active
- Substrate specificity [1]: inactive

Molecule: silver
- Inhibitors ([9]; polyamine oxidase AT-1): strong inhibition
- Inhibitors ([4]; spermidine as the substrate): inhibition
- Inhibitors ([4]; spermine as the substrate): inhibition

Source: patent publication US4550078A, “Method for the quantitative determination of individual polyamine components in a mixture” (Amano Seiyaku Kabushiki Kaisha, priority 1982, dated 1985)
